Test results from patent US6214537A, “Synthetic peptides and mixtures thereof for detecting HIV antibodies” (Biochem Immunosystems, Inc., priority 1988, dated 2001).
Positions of bridges follow the written chain, without caps; N, C: chain ends. Residues, ends and D or L forms follow the SMILES beside them.

Columns and labels:
[1] = tested on: HIV-1 antibodies; experiment: ELISA, single peptides identifying HIV-1 positive sera; type: binding, human; conditions: ELISA, single peptide
Method: According to this test a peptide or a peptide mixture of the present invention is adsorbed onto the wells of a microtiter plate. The wells are then treated with sera to be tested. After washing, anti-human IgG labeled with peroxidase is added to the wells. The determination of the peroxidase is performed with a corresponding substrate, e.g. with o-phenylene diamine. Also in this procedure the peroxidase can be exchanged by another label, e.g. by a radioactive or fluorescence label.
(§1) Each well of the microtiter plate is saturated with 100 μl of a solution containing a peptide or mixture of peptides (5 μg/ml) and left overnight. The wells are emptied and washed twice with a washing buffer (Tris, 0.043M; NaCl, 0.5M;thimerosal, 0.01% w/v; Tween 20, 0.05% v/v; pH 7.4). The wells are then saturated with 0.35 ml of washing buffer for 1 hr. at 37° C. and washed once with the same buffer. Serum samples to be analyzed are diluted with specimen buffer (washing buffer plus casein, 0.05% w/v). The wells are rinsed with washing buffer prior to the addition of the diluted serum sample (0.1 ml). These are left to incubate for 1 hr. at room temperature. The wells are then emptied, washed twice rapidly and then once for two minutes with washing buffer. […] The wells are then emptied and washed twice rapidly with washing buffer and then five times in which the buffer was in contact with the well 2 minutes per washing.
(§2) The substrate solution (3,3', 5,5'-tetramethylbenzidine, 8 mg per ml of DMSO) is diluted with 100 volumes 0.1M citrate-acetate buffer, pH 5.6 containing 0.1% v/v of 30% H2 O2 and added to each well (0.1 ml per well). After 10 minutes the contents of each well is treated with 0.1 ml 2N H2 SO4 and the optical density read at 450 nm. All determinations are done in duplicate.

[2] = tested on: HIV-1-antibodies; experiment: ELISA, cyclic versus non-cyclic peptides, sera at various dilutions; type: binding, human
Method: TABLE 5 is provided to illustrate the sensitivity of cyclic versus noncyclic peptides in the ELISA test by comparing the results of some sera at various dilutions.
(§3) Plates used in this experiment were coated with solutions of peptides at 10 μg/ml. (Experimental results of TABLE 5 were obtained with plates coated with peptides at 0,5 μg/ml). Four different HIV-1 positive serum samples were serially diluted and their titers determined. The titer was defined as the serum dilution giving an absorbancy reading of 1:0 in the conditions of the ELISA procedure already described.
as §1, §2

[3] = tested on: antibodies specific to HIV-1; experiment: ELISA serum titers, plates coated with cyclic 87c versus linear 87; type: binding, human
From the text: (§4) Even though results presented in TABLE 5 clearly show the superiority of cyclic peptides over their linear counterpart in detecting HIV-1-antibodies, that increased sensitivity could have been underestimated because of probable cyclization and polymerization of the linear peptide after solubilization in a carbonate buffer (pH 9.6). That experiment was repeated with the linear 87 and cyclic 87c peptides dissolved in a carbonate buffer (pH 9.6) as before and also in 10% acetic acid (pH 2.7). […] It is believed that cydization and polymerization also occured in the wells of the microtiter plates although the exact proportion of cyclic peptide bound to the plates versus linear has not been as yet determined.
as §3
The ratios of sensitivities measured with the cyclic peptide over the linear 87 peptide vary between 1:3 and 2:2 with an average of 1:8. These ratios are even larger, varying from 3:0 to 4:5, when the sensitivity of the ELISA test using the cyclic 87c peptide is compared using conditions (acidic pH) where the linear 87 peptide remains linear and is not allowed to cyclize or polymerize.

[4] = State of peptide in coating solution (HPLC, Ellman's test); type: physicochemical; conditions: for state of peptide in solution (HPLC, Ellman's test): 10% acetic acid (pH 2.7)
From the text: as §4

[5] = tested on: HIV-1 antibodies; experiment: ELISA plates coated with cyclic 87c versus linear 87 or polymers of 87: sensitivity and background; type: binding, human
[6] = coating buffer 10% Acetic Acid (pH 2.7), serum M-5, coated at 10 μg/ml
[7] = coating buffer 10% Acetic Acid (pH 2.7), serum M-7, coated at 10 μg/ml
[8] = coating buffer 10% Acetic Acid (pH 2.7), serum M-8, coated at 10 μg/ml
[9] = coating buffer 10% Acetic Acid (pH 2.7), serum M-16, coated at 10 μg/ml
[10] = coating buffer Carbonate Bicarbonate 0.1M (pH 9.6), serum M-5, coated at 10 μg/ml
[11] = coating buffer Carbonate Bicarbonate 0.1M (pH 9.6), serum M-7, coated at 10 μg/ml
[12] = coating buffer Carbonate Bicarbonate 0.1M (pH 9.6), serum M-8, coated at 10 μg/ml
[13] = coating buffer Carbonate Bicarbonate 0.1M (pH 9.6), serum M-16, coated at 10 μg/ml

With “NH2 -RILAVERYLKDQQLLGIWGCSGKLICTTAVPWNAS-COOH [Peptide 87]” the “% Positive Sera correctly Identified” value [1] was 99%, the ELISA optical density ([2]; serum 87V103, dilution 1/50) was 0.005 optical density units and the ELISA optical density ([2]; serum 1428, dilution 1/50) was 1.463 optical density units. It also gave an ELISA optical density ([2]; serum M-5, dilution 1/50) of 1.809 optical density units, an ELISA optical density ([2]; serum M-5, dilution 1/100) of 1.685 optical density units and an ELISA optical density ([2]; serum M-5, dilution 1/200) of 1.513 optical density units. It also gave an ELISA optical density ([2]; serum M-5, dilution 1/400) of 1.418 optical density units, an ELISA optical density ([2]; serum M-5, dilution 1/800) of 1.012 optical density units and an ELISA optical density ([2]; serum M-7, dilution 1/50) of 1.504 optical density units. It also gave an ELISA optical density ([2]; serum M-7, dilution 1/100) of 1.329 optical density units, an ELISA optical density ([2]; serum M-7, dilution 1/200) of 1.184 optical density units and an ELISA optical density ([2]; serum M-7, dilution 1/400) of 0.923 optical density units. For the same compound, the ELISA optical density ([2]; serum M-7, dilution 1/800) was 0.571 optical density units, the ELISA optical density ([2]; serum M-8, dilution 1/50) was 1.390 optical density units and the ELISA optical density ([2]; serum M-8, dilution 1/100) was 1.087 optical density units. The ELISA optical density ([2]; serum M-8, dilution 1/200) was 0.883 optical density units, the ELISA optical density ([2]; serum M-8, dilution 1/400) was 0.593 optical density units and the ELISA optical density ([2]; serum M-8, dilution 1/800) was 0.240 optical density units. It also gave an ELISA optical density ([2]; serum M-16, dilution 1/50) of 1.846 optical density units, an ELISA optical density ([2]; serum M-16, dilution 1/100) of 1.784 optical density units and an ELISA optical density ([2]; serum M-16, dilution 1/200) of 1.740 optical density units. The ELISA optical density ([2]; serum M-16, dilution 1/400) was 1.634 optical density units, the ELISA optical density ([2]; serum M-16, dilution 1/800) was 1.537 optical density units and the serum titer [3, 6] was 4500. The serum titer [3, 7] was 2300, the serum titer [3, 8] was 1400 and the serum titer [3, 9] was 15000. For the same compound, the serum titer [3, 10] was 10500, the serum titer [3, 11] was 6000 and the serum titer [3, 12] was 2900. The serum titer [3, 13] was 33000, the “state of peptide in solution (HPLC, Ellman's test)” value [4] was “remained linear” and the “state of peptide in solution (HPLC)” value ([4]; carbonate buffer (pH 9.6), room temperature) was “underwent cyclization and polymerization”.
For CC[C@H](C)[C@H](NC(=O)CNC(=O)[C@H](CC(C)C)NC(=O)[C@H](CC(C)C)NC(=O)[C@H](CCC(N)=O)NC(=O)[C@H](CCC(N)=O)NC(=O)[C@H](CC(=O)O)NC(=O)[C@H](CCCCN)NC(=O)[C@H](CC(C)C)NC(=O)[C@H](Cc1ccc(O)cc1)NC(=O)[C@H](CCCNC(=N)N)NC(=O)[C@H](CCC(=O)O)NC(=O)[C@@H](NC(=O)[C@H](C)NC(=O)[C@H](CC(C)C)NC(=O)[C@@H](NC(=O)[C@@H](N)CCCNC(=N)N)[C@@H](C)CC)C(C)C)C(=O)N[C@@H](Cc1c[nH]c2ccccc12)C(=O)NCC(=O)N[C@H]1CSSC[C@@H](C(=O)N[C@H](C(=O)N[C@H](C(=O)N[C@@H](C)C(=O)N[C@H](C(=O)N2CCC[C@H]2C(=O)N[C@@H](Cc2c[nH]c3ccccc23)C(=O)N[C@@H](CC(N)=O)C(=O)N[C@@H](C)C(=O)N[C@@H](CO)C(=O)O)C(C)C)[C@@H](C)O)[C@@H](C)O)NC(=O)[C@H]([C@@H](C)CC)NC(=O)[C@H](CC(C)C)NC(=O)[C@H](CCCCN)NC(=O)CNC(=O)[C@H](CO)NC1=O [Peptide 87c] (H-RILAVERYLKDQQLLGIWGCSGKLICTTAVPWNAS-OH; disulfide 20-26), the “% Positive Sera correctly Identified” value [1] was 99%, the ELISA optical density ([2]; serum 87V103, dilution 1/50) was 0.011 optical density units and the ELISA optical density ([2]; serum 1428, dilution 1/50) was > 2.0 optical density units. For the same compound, the ELISA optical density ([2]; serum M-5, dilution 1/50) was > 2.0 optical density units, the ELISA optical density ([2]; serum M-5, dilution 1/100) was > 2.0 optical density units and the ELISA optical density ([2]; serum M-5, dilution 1/200) was > 2.0 optical density units. The ELISA optical density ([2]; serum M-5, dilution 1/400) was > 2.0 optical density units, the ELISA optical density ([2]; serum M-5, dilution 1/800) was 1.854 optical density units and the ELISA optical density ([2]; serum M-7, dilution 1/50) was > 2.0 optical density units. For the same compound, the ELISA optical density ([2]; serum M-7, dilution 1/100) was > 2.0 optical density units, the ELISA optical density ([2]; serum M-7, dilution 1/200) was 1.729 optical density units and the ELISA optical density ([2]; serum M-7, dilution 1/400) was 1.348 optical density units. For the same compound, the ELISA optical density ([2]; serum M-7, dilution 1/800) was 0.611 optical density units, the ELISA optical density ([2]; serum M-8, dilution 1/50) was > 2.0 optical density units and the ELISA optical density ([2]; serum M-8, dilution 1/100) was > 2.0 optical density units. It also gave an ELISA optical density ([2]; serum M-8, dilution 1/200) of 1.655 optical density units, an ELISA optical density ([2]; serum M-8, dilution 1/400) of 1.064 optical density units and an ELISA optical density ([2]; serum M-8, dilution 1/800) of 0.384 optical density units. For the same compound, the ELISA optical density ([2]; serum M-16, dilution 1/50) was > 2.0 optical density units, the ELISA optical density ([2]; serum M-16, dilution 1/100) was > 2.0 optical density units and the ELISA optical density ([2]; serum M-16, dilution 1/200) was > 2.0 optical density units. For the same compound, the ELISA optical density ([2]; serum M-16, dilution 1/400) was > 2.0 optical density units, the ELISA optical density ([2]; serum M-16, dilution 1/800) was 1.962 optical density units and the “titer ratio A/B (87c cyclic / 87 linear)” value ([3]; 10% Acetic Acid (pH 2.7), serum M-5) was 3.0. The “titer ratio A/B (87c cyclic / 87 linear)” value ([3]; 10% Acetic Acid (pH 2.7), serum M-7) was 3.9, the “titer ratio A/B (87c cyclic / 87 linear)” value ([3]; 10% Acetic Acid (pH 2.7), serum M-8) was 4.5 and the “titer ratio A/B (87c cyclic / 87 linear)” value ([3]; 10% Acetic Acid (pH 2.7), serum M-16) was 3.7. For the same compound, the “titer ratio A/B (87c cyclic / 87 linear)” value ([3]; Carbonate Bicarbonate 0.1M (pH 9.6), serum M-5) was 1.3, the “titer ratio A/B (87c cyclic / 87 linear)” value ([3]; Carbonate Bicarbonate 0.1M (pH 9.6), serum M-7) was 1.8 and the “titer ratio A/B (87c cyclic / 87 linear)” value ([3]; Carbonate Bicarbonate 0.1M (pH 9.6), serum M-8) was 2.2. For the same compound, the “titer ratio A/B (87c cyclic / 87 linear)” value ([3]; Carbonate Bicarbonate 0.1M (pH 9.6), serum M-16) was 1.7, the serum titer [3, 6] was 13500 and the serum titer [3, 7] was 9000. The serum titer [3, 8] was 6300, the serum titer [3, 9] was 56000 and the serum titer [3, 10] was 13500. It also gave a serum titer [3, 11] of 11000, a serum titer [3, 12] of 6500 and a serum titer [3, 13] of 56000. For the same compound, the “sensitivity in detecting HIV-1 antibodies compared with plates coated with pool of fractions containing only polymers of peptide 87” value [5] was “superiority” and the “state of peptide in solution (HPLC, Ellman's test)” value [4] was “remained cyclic”.
